Results published in patent publication US20230365541A1, “INHIBITOR OF ENHANCER OF ZESTE HOMOLOGUE 2, AND USE THEREOF” (HAISCO PHARMACEUTICALS PTE. LTD., priority 2020, published 2023).

Biological target: EZH2 (Homo sapiens (Human), UniProt Q15910)
Experiment: Test method for EZH2 enzyme activity
Type: biochemical
Details: H3K27(21-44) and [3H]-SAM
Description: The compounds were dissolved in DMSO, formulated into 10 mM solutions and serially diluted with DMSO to obtain 100-fold the final concentration. 200 nL of the solutions of the compounds was transferred to a 384-well plate (Perkin Elmer, Cat. No. 6007299) by using Echo550. EZH2 (BPS, Cat. No. 51004) was diluted with 1×assay buffer (50 mM Tris-HCl 9.0, 0.01% Tween-20, 1 mM DTT) to 2-fold the final concentration (EZH2: 3 nM). A mixed solution of H3K27(21-44) and [3H]-SAM (PerkinElmer, Lot. No. 2146246) (H3K27(21-44): 200 nM, [3H]-SAM: 100 nM) was formulated. The EZH2 diluted solution was taken and added to the 384-well plate at 10 μL/well (10 μL of 1×assay buffer was added in the control group). The plate was sealed and then incubated at room temperature for 15 minutes. 10 μL of the mixed solution of H3K27 (21-44) and [3H]-SAM was added to each well. The plate was sealed and then incubated at room temperature for 60 minutes. 50 μM of SAM (Sigma, Cat. No. A7007) was formulated at low temperature and added to the 384-well plate at 10 μL/well. The sample was taken at 25 μL/well, transferred to a flashplate and incubated at room temperature for at least 1 hour. The flashplate was washed 3 times with a plate washing liquid (dH2O+0.1% Tween-20) and read by using Microbeta. The inhibition rate was calculated in Excel according to: inhibition rate (%)=(maximum valuepositive control−detection signal value)/(maximum valuepositive control−minimum valuenegative control)*100, and IC50 values were fitted by using XL-Fit.

EZH2, sequence (Q15910 other isoform, or with tags, fused parts or gaps isoform Q15910-2): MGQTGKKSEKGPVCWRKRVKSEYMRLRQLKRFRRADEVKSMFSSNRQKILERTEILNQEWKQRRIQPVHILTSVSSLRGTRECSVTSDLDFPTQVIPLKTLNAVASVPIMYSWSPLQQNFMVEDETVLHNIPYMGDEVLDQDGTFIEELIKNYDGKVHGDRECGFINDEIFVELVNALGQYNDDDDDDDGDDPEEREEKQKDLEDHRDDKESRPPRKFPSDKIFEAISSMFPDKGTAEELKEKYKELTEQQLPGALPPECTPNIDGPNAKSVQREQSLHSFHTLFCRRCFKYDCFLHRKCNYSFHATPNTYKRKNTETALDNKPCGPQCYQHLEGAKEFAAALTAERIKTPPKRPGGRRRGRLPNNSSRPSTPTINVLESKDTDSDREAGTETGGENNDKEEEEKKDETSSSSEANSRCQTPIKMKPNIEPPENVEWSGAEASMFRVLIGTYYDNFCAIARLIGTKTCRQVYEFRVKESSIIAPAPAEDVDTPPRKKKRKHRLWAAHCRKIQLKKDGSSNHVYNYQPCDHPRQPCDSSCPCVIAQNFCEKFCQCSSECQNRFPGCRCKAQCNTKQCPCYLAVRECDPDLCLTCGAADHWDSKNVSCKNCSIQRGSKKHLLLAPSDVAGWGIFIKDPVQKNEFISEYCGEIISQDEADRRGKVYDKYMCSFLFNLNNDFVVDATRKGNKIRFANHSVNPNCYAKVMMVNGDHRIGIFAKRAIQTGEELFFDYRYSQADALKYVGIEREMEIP
EZH2, sequence (O75530 2-441 partner): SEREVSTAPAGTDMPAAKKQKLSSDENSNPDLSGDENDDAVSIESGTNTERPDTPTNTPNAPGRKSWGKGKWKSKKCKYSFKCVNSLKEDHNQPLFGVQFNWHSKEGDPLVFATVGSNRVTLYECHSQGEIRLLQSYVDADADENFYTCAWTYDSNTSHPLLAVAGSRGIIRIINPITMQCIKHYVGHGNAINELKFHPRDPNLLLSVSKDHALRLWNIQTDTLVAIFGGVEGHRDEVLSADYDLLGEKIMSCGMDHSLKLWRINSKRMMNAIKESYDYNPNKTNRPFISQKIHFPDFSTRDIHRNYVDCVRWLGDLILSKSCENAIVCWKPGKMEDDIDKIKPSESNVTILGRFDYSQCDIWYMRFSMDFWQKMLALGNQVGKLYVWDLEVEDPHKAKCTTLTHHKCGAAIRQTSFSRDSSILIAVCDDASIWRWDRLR
EZH2, sequence (Q15022 2-739 partner): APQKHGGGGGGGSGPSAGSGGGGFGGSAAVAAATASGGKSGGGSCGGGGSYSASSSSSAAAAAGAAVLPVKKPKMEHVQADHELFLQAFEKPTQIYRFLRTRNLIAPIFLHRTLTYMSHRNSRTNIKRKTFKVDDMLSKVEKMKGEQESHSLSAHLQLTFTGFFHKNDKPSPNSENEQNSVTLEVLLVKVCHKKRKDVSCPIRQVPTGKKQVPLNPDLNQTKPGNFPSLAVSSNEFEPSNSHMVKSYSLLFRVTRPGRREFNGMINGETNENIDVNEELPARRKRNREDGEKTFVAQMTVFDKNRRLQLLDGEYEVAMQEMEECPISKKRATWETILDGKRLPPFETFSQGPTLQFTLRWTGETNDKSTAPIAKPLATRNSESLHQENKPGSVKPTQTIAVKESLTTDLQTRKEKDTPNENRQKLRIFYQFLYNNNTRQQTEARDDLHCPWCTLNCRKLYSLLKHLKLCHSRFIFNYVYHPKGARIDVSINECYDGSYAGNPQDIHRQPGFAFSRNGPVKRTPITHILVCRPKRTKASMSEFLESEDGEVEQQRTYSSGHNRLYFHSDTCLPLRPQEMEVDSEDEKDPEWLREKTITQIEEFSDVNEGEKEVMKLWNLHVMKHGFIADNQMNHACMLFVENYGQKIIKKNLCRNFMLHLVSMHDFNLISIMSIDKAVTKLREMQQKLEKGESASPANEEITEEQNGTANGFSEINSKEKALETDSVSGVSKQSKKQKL
EZH2, sequence (Q09028 2-425 partner): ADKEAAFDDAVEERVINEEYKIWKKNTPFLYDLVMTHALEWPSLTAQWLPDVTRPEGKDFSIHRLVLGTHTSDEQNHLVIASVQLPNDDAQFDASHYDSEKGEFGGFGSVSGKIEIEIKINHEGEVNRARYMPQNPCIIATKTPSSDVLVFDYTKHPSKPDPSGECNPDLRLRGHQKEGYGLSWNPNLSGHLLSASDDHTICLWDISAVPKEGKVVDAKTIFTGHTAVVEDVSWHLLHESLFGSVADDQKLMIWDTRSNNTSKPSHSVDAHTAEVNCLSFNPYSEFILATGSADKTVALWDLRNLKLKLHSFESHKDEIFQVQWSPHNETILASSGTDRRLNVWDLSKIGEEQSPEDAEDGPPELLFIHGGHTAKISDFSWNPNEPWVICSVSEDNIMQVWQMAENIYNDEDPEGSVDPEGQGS
EZH2, sequence (Q6ZN18 whole entry partner): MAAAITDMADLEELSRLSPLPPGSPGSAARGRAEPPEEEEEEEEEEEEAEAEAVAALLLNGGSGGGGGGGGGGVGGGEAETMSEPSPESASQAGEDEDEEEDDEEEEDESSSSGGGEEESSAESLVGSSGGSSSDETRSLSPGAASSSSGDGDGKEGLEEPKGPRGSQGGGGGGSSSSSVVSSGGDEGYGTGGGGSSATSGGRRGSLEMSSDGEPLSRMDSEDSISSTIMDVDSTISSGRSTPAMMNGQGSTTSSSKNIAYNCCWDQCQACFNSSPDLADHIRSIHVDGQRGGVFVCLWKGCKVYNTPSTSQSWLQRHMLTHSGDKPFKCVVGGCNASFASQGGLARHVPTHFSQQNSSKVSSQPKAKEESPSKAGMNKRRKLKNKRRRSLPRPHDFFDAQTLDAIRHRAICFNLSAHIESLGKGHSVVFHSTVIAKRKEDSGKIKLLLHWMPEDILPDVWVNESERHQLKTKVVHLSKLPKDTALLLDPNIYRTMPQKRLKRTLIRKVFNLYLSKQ

Work on CSc1cc(C)[nH]c(=O)c1CNC(=O)c1cc(Cl)c2c(c1C)OC(C)([C@H]1CC[C@@H](N3CC4CN(C)CC4C3)CC1)O2 (single isomer, unassigned) [Compound 42, isomer 1, 7-chloro-2,4-dimethyl-N-((6-methyl-4-(methylthio)-2-oxo-1,2-dihydropyridin-3-yl)methyl)-2-(4-(5-methylhexahydropyrrolo[3,4-c]pyrrol-2(1H)-yl)cyclohexyl)benzo[d][1,3]dioxole-5-carboxamide] yielded an IC50 of 340 pM.

With CSc1cc(C)[nH]c(=O)c1CNC(=O)c1cc(Cl)c2c(c1C)OC(C)([C@H]1CC[C@@H](N3CC4CN(C)CC4C3)CC1)O2 (single isomer, unassigned) [Compound 42, isomer 2, 7-chloro-2,4-dimethyl-N-((6-methyl-4-(methylthio)-2-oxo-1,2-dihydropyridin-3-yl)methyl)-2-(4-(5-methylhexahydropyrrolo[3,4-c]pyrrol-2(1H)-yl)cyclohexyl)benzo[d][1,3]dioxole-5-carboxamide] the IC50 was 230 pM.

In the case of CSc1cc(C)[nH]c(=O)c1CNC(=O)c1cc(Cl)c2c(c1C)OC(C)([C@H]1CC[C@@H](N3CC(N4CCCC4)C3)CC1)O2 (single isomer, unassigned) [Compound 43, isomer 2, 7-chloro-2,4-dimethyl-N-((6-methyl-4-(methylthio)-2-oxo-1,2-dihydropyridin-3-yl)methyl)-2-(4-(3-(pyrrolidin-1-yl)azetidin-1-yl)cyclohexyl)benzo[d][1,3]dioxole-5-carboxamide], the IC50 is reported as 420 pM.

Compound CSc1cc(C)[nH]c(=O)c1CNC(=O)c1cc(Cl)c2c(c1C)OC(C)(C1CCC(N[C@H]3C[C@H](O)C3)CC1)O2 (single isomer, unassigned) [Compound 45, isomer 1, 7-chloro-2-(4-((trans-3-hydroxycyclobutyl)amino)cyclohexyl)-2,4-dimethyl-N-((6-methyl-4-(methylthio)-2-oxo-1,2-dihydropyridin-3-yl)methyl)benzo[d][1,3]dioxole-5-carboxamide] has an IC50 of 280 pM.

With CSc1cc(C)[nH]c(=O)c1CNC(=O)c1cc(Cl)c2c(c1C)OC(C)(C1CCC(N[C@H]3C[C@H](O)C3)CC1)O2 (single isomer, unassigned) [Compound 45, isomer 2, 7-chloro-2-(4-((trans-3-hydroxycyclobutyl)amino)cyclohexyl)-2,4-dimethyl-N-((6-methyl-4-(methylthio)-2-oxo-1,2-dihydropyridin-3-yl)methyl)benzo[d][1,3]dioxole-5-carboxamide] the IC50 was 350 pM.

Work on CSc1cc(C)[nH]c(=O)c1CNC(=O)c1cc(Cl)c2c(c1C)OC(C)([C@H]1CC[C@@H](N3CC[Si](C)(C)CC3)CC1)O2 (single isomer, unassigned) [Compound 49, isomer 1, 7-chloro-2-(4-(4,4-dimethyl-1,4-azasilinan-1-yl)cyclohexyl)-2,4-dimethyl-N-((6-methyl-4-(methylthio)-2-oxo-1,2-dihydropyridin-3-yl)methyl)benzo[d][1,3]dioxole-5-carboxamide] yielded an IC50 of 510 pM.

For [2H]C([2H])(NC(=O)c1cc(Cl)c2c(c1C)OC(C)([C@H]1CC[C@@H](CN3CCOCC3)CC1)O2)c1c(SC)cc(C)[nH]c1=O (single isomer, unassigned) [Compound 57, isomer 1, 7-chloro-2,4-dimethyl-N-((6-methyl-4-(methylthio)-2-oxo-1,2-dihydropyridin-3-yl)methyl-d2)-2-(4-(morpholinomethyl)cyclohexyl)benzo[d][1,3]dioxole-5-carboxamide], the IC50 was 460 pM.

[2H]C([2H])(NC(=O)c1cc(Cl)c2c(c1C)OC(C)([C@H]1CC[C@@H](CN3CCOCC3)CC1)O2)c1c(SC)cc(C)[nH]c1=O (single isomer, unassigned) [Compound 57, isomer 2, 7-chloro-2,4-dimethyl-N-((6-methyl-4-(methylthio)-2-oxo-1,2-dihydropyridin-3-yl)methyl-d2)-2-(4-(morpholinomethyl)cyclohexyl)benzo[d][1,3]dioxole-5-carboxamide] was tested, and the IC50 was 490 pM.

With CSc1cc(C)[nH]c(=O)c1CNC(=O)c1cc(Cl)c2c(c1C)OC(C)(C1CCC(NC3COC3)CC1)O2 (single isomer, unassigned) [Compound 61, isomer 1, 7-chloro-2,4-dimethyl-N-((6-methyl-4-(methylthio)-2-oxo-1,2-dihydropyridin-3-yl)methyl)-2-(4-(oxetan-3-ylamino)cyclohexyl)benzo[d][1,3]dioxole-5-carboxamide] the IC50 was 520 pM.

CSc1cc(C)[nH]c(=O)c1CNC(=O)c1cc(Cl)c2c(c1C)OC(C)(C1CCC(NC3COC3)CC1)O2 (single isomer, unassigned) [Compound 61, isomer 2, 7-chloro-2,4-dimethyl-N-((6-methyl-4-(methylthio)-2-oxo-1,2-dihydropyridin-3-yl)methyl)-2-(4-(oxetan-3-ylamino)cyclohexyl)benzo[d][1,3]dioxole-5-carboxamide] gave an IC50 of 250 pM.

For CSc1cc(C)[nH]c(=O)c1CNC(=O)c1cc(Cl)c2c(c1C)OC(C)(C1CCN(C(=O)C3CC(F)(F)C3)CC1)O2 (single isomer, unassigned; isomer 1) [Compound 11, isomer 1, 7-chloro-2-(1-(3,3-difluorocyclobutane-1-carbonyl)piperidin-4-yl)-2,4-dimethyl-N-((6-methyl-4-(methylthio)-2-oxo-1,2-dihydropyridin-3-yl)methyl)benzo[d][1,3]dioxole-5-carboxamide], the IC50 was 730 pM.

For CSc1cc(C)[nH]c(=O)c1CNC(=O)c1cc(Cl)c2c(c1C)OC(C)(C1CCN(C(=O)C3CC(F)(F)C3)CC1)O2 (single isomer, unassigned; isomer 2) [Compound 11, isomer 2, 7-chloro-2-(1-(3,3-difluorocyclobutane-1-carbonyl)piperidin-4-yl)-2,4-dimethyl-N-((6-methyl-4-(methylthio)-2-oxo-1,2-dihydropyridin-3-yl)methyl)benzo[d][1,3]dioxole-5-carboxamide], the IC50 was 880 pM.

CSc1cc(C)[nH]c(=O)c1CNC(=O)c1cc(Cl)c2c(c1C)OC(C)([C@H]1CC[C@@H](C(=O)N3CC(F)(F)C3)CC1)O2 (single isomer, unassigned; isomer 2) [Compound 47, isomer 2, 7-chloro-2-(4-(3,3-difluoroazetidine-1-carbonyl)cyclohexyl)-2,4-dimethyl-N-(di-deuterated(6-methyl-4-(methylthio)-2-oxo-1,2-dihydropyridin-3-yl)di-deuterated-methyl)benzo[d][1,3]dioxole-5-carboxamide] showed an IC50 of 920 pM.

For CSc1cc(C)[nH]c(=O)c1CNC(=O)c1cc(Cl)c2c(c1C)OC(C)(C1CCN(C(=O)c3csc(C)n3)CC1)O2 (stereo not shown) [Compound 21, 7-chloro-2,4-dimethyl-N-((6-methyl-4-(methylthio)-2-oxo-1,2-dihydropyridin-3-yl)methyl)-2-(1-(2-methylthiazole-4-carbonyl)piperidin-4-yl)benzo[d][1,3]dioxole-5-carboxamide], the IC50 was 610 pM.

For CSc1cc(C)[nH]c(=O)c1CNC(=O)c1cc(Cl)c2c(c1C)OC(C)(C1CCN(C3CC3)CC1)O2 (stereo not shown) [Compound 24, 7-chloro-2-(1-cyclopropylpiperidin-4-yl)-2,4-dimethyl-N-((6-methyl-4-(methylthio)-2-oxo-1,2-dihydropyridin-3-yl)methyl)benzo[d][1,3]dioxole-5-carboxamide], the IC50 was 580 pM.

For [2H]C([2H])(NC(=O)c1cc(Cl)c2c(c1C)OC(C)(C1CCN(CC3CC(F)(F)C3)CC1)O2)c1c(SC)cc(C)[nH]c1=O (stereo not shown) [Compound 28, 7-chloro-2-(1-((3,3-difluorocyclobutyl)methyl)piperidin-4-yl)-2,4-dimethyl-N-((6-methyl-4-(methylthio)-2-oxo-1,2-dihydropyridin-3-yl)methyl-d2)benzo[d][1,3]dioxole-5-carboxamide], the IC50 was 490 pM.

Compound CSc1cc(C)[nH]c(=O)c1CNC(=O)c1cc(Cl)c2c(c1C)OC(C)(C1CCN(CC3(F)CC3)CC1)O2 (stereo not shown) [Compound 32, 7-chloro-2-(1-((1-fluorocyclopropyl)methyl)piperidin-4-yl)-2,4-dimethyl-N-((6-methyl-4-(methylthio)-2-oxo-1,2-dihydropyridin-3-yl)methyl)benzo[d][1,3]dioxole-5-carboxamide] has an IC50 of 580 pM.

COC1CC(N2CCC(C3(C)Oc4c(Cl)cc(C(=O)NCc5c(SC)cc(C)[nH]c5=O)c(C)c4O3)CC2)C1 (stereo not shown) [Compound 33, 7-chloro-2-(1-(3-methoxycyclobutyl)piperidin-4-yl)-2,4-dimethyl-N-((6-methyl-4-(methylthio)-2-oxo-1,2-dihydropyridin-3-yl)methyl)benzo[d][1,3]dioxole-5-carboxamide] was tested, and the IC50 was 570 pM.

For CSc1cc(C)[nH]c(=O)c1CNC(=O)c1cc(Cl)c2c(c1C)OC(C)(C1CCC(N(C)C3CC(F)(F)C3)CC1)O2 (stereo not shown) [Compound 35, 7-chloro-2-(4-((3,3-difluorocyclobutyl)(methyl)amino)cyclohexyl)-2,4-dimethyl-N-((6-methyl-4-(methylthio)-2-oxo-1,2-dihydropyridin-3-yl)methyl)benzo[d][1,3]dioxole-5-carboxamide], the IC50 was 590 pM.
